Data on 5 compounds can be found in patent US6884810B2, “Benzimidazole derivatives” (Zeria Pharmaceutical Co., Ltd., priority 2001, dated 2005).

One series deals with T1, CYP2C19 (Homo sapiens, UniProt P33261).
T1 construct: purchased Sumitomo Chemical Co., Ltd; host or cells: yeast (microsomes)
Description: Human CYP2C19 activity inhibition test (S-(+)-mephenytoin to 4'-hydroxymephenytoin). It counts as in vitro ADME. Particulars: test compound 10 μM, human CYP2C19 yeast expression system microsome, 4'-hydroxymephenytoin generated vs control; for CYP2C19 residual activity (%): 10 µM. On the procedure: (Human CYP2C19 Activity Inhibition Test)
CYP2C19 specifically participates in the metabolism reaction from S-(+)-mephenytoin to 4′-hydroxymephenytoin. Therefore, by use of an expression system CYP2C19, the production amount (concentration) of 4′-hydroxymephenytoin, serving as an index for CYP2C19 activity, was determined, whereby the inhibitory action of respective test substances was investigated.
(a) Metabolizing Activity Test
A solution of S-(+)-mephenytoin in methanol (125 μmol/L, 50 μL) and a solution of a test substance in methanol (25 μmol/L, 0, 10, 100, or 200 μL) were placed in a 10-mL glass test tube. The solvent was removed under a nitrogen gas at 40° C. A 75 μL mixture of 0.5M phosphate buffer (pH 7.4)-0.5 mM EDTA (20:10), 140 μL purified water, and 10 μL human CYP2C19 yeast expression system microsome (purchased from Sumitomo Chemical Co., Ltd.) were added.
Incubation was performed for 10 minutes at 37° C. Subsequently, aqueous 12% perchloric acid solution (50 μL) was added, to thereby stop the reaction.
After the reaction was stopped, an internal standard substance (I.S.) methyl p-hydroxybenzoate (100 μg/ mL, 50 μL), and diethyl ether (2 mL) were added. The mixture was shaken for 10 minutes, followed by centrifugation at 3,000 rpm for 10 minutes. The organic layer was separated, and the solvent was removed under a nitrogen gas at 40° C. The residue was dissolved in a 200 μL mobile phase, and the mixture was subjected to analysis by high performance liquid chromatography (HPLC).
In order to generate a calibration curve, the general procedure of the above process was repeated by use of 4′-hydroxymephenytoin solution instead of the S-(+)-mephenytoin solution. Quantitation was performed on the basis of the peak area ratio of 4′-hydroxymephenytoin to I.S. The amount of 4′-hydroxymephenytoin generated in the control sample was compared with that generated in the present of a test compound, and the results of comparison were used as an activity index.
HPLC was performed under the conditions described below (HPLC conditions A or HPLC conditions B).

The next series addresses T2, H+/K+-ATPase (Sus scrofa, UniProt P19156).
T2 construct: The mucous membrane layer was homogenized in Tris-HCl buffer; from tissue; host or cells: pig stomach body, mucous membrane layer, membrane fraction from a sucrose interface
Description: Proton pump inhibitory action: activity of inhibiting H+/K+-ATPase (at pH 1). It counts as biochemical. Particulars: pig gastric mucosa enzyme sample; test compounds pretreated in hydrochloric acid solution pH 1 (50% DMSO) for 15 minutes; read-out: Proton pump inhibitory action [IC50 (μmol/L)]. An excerpt: (Proton Pump Inhibitory Action)
(1) Preparation of Enzyme Sample (H^+/K^+-ATPase)
The stomach body removed from a pig, which had been stored in a frozen state, was separated into a muscle layer and a mucous membrane layer. The mucous membrane layer was homogenized in Tris-HCl buffer (20 mmol/L, pH 7.4) having a volume 5 times that of the layer and containing sucrose (0.25 mol/L) and EGTA (1 mmol/L) (hereinafter the mixture is referred to as Tris-HCl buffer) in a mixer. The homogenate was subjected to centrifugation (9,000×g, 30 minutes). The supernatant was softly placed on 8 mL Tris-HCl buffer (20 mmol/L, pH 7.4) containing 30% sucrose and 1 mmol/L EGTA. The mixture was subjected to ultracentrifugation at 100,000×g for 60 minutes. The interface fraction obtained through centrifugation was subjected to centrifugation (113,000×g, 60 minutes) twice. Pellet was suspended in Tris-HCl buffer, and the suspension was homogenized at low speed. The resultant homogenate served as an enzyme sample of interest and was stored at −80° C. The protein content of the sample was quantitated through use of a BCA protein assay reagent in accordance with a method described by Smith et al. (Anal. Biochem., 150, 76-85 (1985)). All these steps were performed under cooling with an ice bath.
(2) Activity of inhibiting H^+/K^+-ATPase (at pH 1)
Activity of inhibiting H^+/K^+-ATPase was measured in accordance with a method described in Biochem. Biophys. Res. Commun., 40, 880-886 (1970). Specifically, ATP was employed as a substrate, and inorganic phosphate, which is a resultant degradation product, was quantitated. In consideration of the solubility of test compounds, the test compounds were preliminarily treated with a hydrochloric acid solution (containing 50% DMSO, 1×10^−1 mol/L, pH 1). Each of the test compounds having different concentrations was added to the hydrochloric acid solution to thereby yield a 1,000—fold dilution, and thereafter, the diluted compound was allowed to stand for 15 minutes at room temperature. After these preliminary remedies, a 10 μL solution that had undergone the above preliminary remedies were added to 840 μL Tris-acetate buffer (40 mmol/L, pH 7.5, containing 2 mmol/L MgCl2, may be referred to as TE buffer) containing or not containing 20 mmol/L KCl. Subsequently, a 100 μL enzyme solution (5 μg protein) diluted with the TE buffer was added. Incubation was performed for 30 minutes at 37° C. Thereafter, a 50 μL ATP solution (40 mmol/L) which was dissolved in TE buffer not containing KCl was added to initiate enzyme reaction (total volume: 1 mL, ATP final concentration: 2 mmol/L). Incubation was performed for 30 minutes at 37° C. Subsequently, ice-cold 12% trichloroacetic acid (2 mL) was added, to thereby stop the enzyme reaction. A molybdenum reagent (1 mL, 3.75% ammonium molybdate/1.5 mol/L sulfuric acid) and butyl acetate (5 mL) were added, followed by mixing under vigorous shaking for 5 minutes. The absorption of the butyl acetate layer was measured at 310 nm. A standard curve was determined on the basis of absorption obtained through the similar procedure by use of KH2PO4 at different concentrations dissolved in 8% TCA solution, and inorganic phosphate content was calculated. Samples to be measured were prepared in duplicate. The measurements were averaged, and residual activity was obtained from the difference between the inorganic phosphate content as determined in a sample containing KCl and that as determined in a sample not containing KCl. Percentage inhibition activity was calculated with respect to the activity obtained from a control sample (DMSO), which was considered 100%. As the inhibitory potency of each test compound, IC50 values were computed and shown. All the test compounds were dissolved in dimethyl sulfoxide immediately before use.

For series [1], the system named is gastric acid secreted under stimulation with histamine. Description: Gastric acid secretion inhibition action, histamine-stimulated, acute Fistula method. It counts as in vivo, Sprague-Dawley (SD) rats. Conditions: SD rats, administered in the duodenum, histamine 8 mg/kg/h, total acid discharge at 3, 4 and 5 hours, Probit method. On the procedure:
(Gastric Acid Secretion Inhibition Action)
(1) Test Animals Employed were Sprague-Dawley (SD) Rats (7 Weeks Old, Male) Purchased from Charles River Japan, Inc. Before the Test, the Rats Were Fed for 5 Days or More.
Each test drug was suspended in, or dissolved in, 0.5% sodium carboxymethylcellulose solution, whereby a suspension or solution was prepared so as to attain 2.5 mL/kg.
(2) Measurement of Gastric Acid Secretion
The amount of gastric acid secreted under stimulation with histamine was measured on the rats fasted for 18 hours by use of the acute Fistula method as described by Hiramatsu et al. (Dig. Dis. Sci.,39, 689-697(1994)). Briefly, each rat was etherized lightly, and then a winged tubular needle filled with 3.8% citric acid solution was indwelled in the tail vein of the rat. The abdomen of the rat was opened, and the pyloric part of the stomach was ligated. Subsequently, a small hole was made in the duodenum, and the abdomen of the rat was closed with a feeding tube filled with saline indwelled. The inside of the stomach was washed with saline, a polyethylene-made Fistula tube (inner diameter: 4 mm) was set in the anterior stomach, and the cut portion of the anterior stomach was ligated and secured. The stomach and the duodenum were returned to the abdominal cavity, with the Fistula tube and the feeding tube exposed outside. The rat was placed in a Ballman cage II. Histamine was continuously administered through the winged injection needle which had been indwelled in the tail vein in advance (8 mg/kg/h, 1.38 mL/h). 15 Minutes thereafter, gastric juice of the rat was collected. Subsequently, collection of gastric juice was performed every one hour. Each time, the amount of the collected gastric juice was recorded, followed by titration with NaOH (0.1 mol/L) up to the end point pH 7.0. From the volume consumed for titration, acidity was calculated. The acid discharge amount was calculated as a product of the amount of the gastric juice and the acidity. Before starting the test, the rats were grouped so that the intra-group total amount of the gastric juice samples initially collected was the same between groups. Thereafter, each test drug was administered (2.5 mL/kg) in the duodenum through a feeding tube which had been attached to the duodenum in advance. To each rat of a control group, 0.5% Na-CMC solution was administered.
(3) Analysis of the Results
The data as obtained above are shown by way of mean±standard error. Total amount of acid discharge was obtained through summation of the amounts of acid discharge at three points in time; i.e., 3, 4 and 5 hours after initial collection of gastric juice. Percent inhibition of each group was computed from the total acid discharge amount of the control group and that of each group. On the basis of the percent inhibition calculated for each group, 50% effective dose (ED50) was computed by use of the Probit method.

Molecules are shown by their SMILES.

T2 sequence (P19156 2-1034 limits assumed): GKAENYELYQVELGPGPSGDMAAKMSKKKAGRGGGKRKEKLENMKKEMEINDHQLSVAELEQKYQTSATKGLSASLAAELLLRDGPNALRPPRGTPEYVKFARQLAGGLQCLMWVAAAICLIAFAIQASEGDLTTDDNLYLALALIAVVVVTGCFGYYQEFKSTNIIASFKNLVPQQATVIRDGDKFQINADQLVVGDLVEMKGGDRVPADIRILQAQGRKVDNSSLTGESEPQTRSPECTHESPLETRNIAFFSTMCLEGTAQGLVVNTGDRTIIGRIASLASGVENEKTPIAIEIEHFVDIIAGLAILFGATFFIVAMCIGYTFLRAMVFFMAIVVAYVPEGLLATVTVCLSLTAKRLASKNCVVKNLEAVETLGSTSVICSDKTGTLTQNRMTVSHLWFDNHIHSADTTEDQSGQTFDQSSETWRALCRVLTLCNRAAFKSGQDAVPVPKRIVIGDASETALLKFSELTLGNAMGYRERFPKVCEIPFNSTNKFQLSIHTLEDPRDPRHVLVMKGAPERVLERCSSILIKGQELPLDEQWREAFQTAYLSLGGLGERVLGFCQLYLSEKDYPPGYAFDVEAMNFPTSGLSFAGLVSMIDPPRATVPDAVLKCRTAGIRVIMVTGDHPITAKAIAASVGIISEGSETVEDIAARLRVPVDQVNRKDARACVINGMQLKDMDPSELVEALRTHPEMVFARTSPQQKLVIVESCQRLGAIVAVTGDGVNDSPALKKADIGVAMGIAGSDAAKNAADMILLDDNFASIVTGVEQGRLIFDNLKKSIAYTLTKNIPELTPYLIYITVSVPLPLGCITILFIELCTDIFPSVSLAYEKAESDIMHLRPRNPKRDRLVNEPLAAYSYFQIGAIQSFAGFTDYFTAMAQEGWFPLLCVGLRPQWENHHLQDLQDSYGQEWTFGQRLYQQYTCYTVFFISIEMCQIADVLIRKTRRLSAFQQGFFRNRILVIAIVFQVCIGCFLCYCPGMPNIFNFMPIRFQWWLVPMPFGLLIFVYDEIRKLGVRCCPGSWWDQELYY
T2 sequence (P18434 whole entry partner): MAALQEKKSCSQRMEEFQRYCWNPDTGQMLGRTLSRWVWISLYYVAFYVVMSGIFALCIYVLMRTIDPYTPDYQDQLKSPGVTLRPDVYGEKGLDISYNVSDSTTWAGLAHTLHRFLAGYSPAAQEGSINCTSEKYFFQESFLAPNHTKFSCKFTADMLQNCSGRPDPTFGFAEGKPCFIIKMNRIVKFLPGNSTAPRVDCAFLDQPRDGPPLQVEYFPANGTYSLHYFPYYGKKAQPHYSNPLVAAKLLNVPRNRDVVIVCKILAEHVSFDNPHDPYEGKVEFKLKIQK
T1 sequence (P33261 whole entry): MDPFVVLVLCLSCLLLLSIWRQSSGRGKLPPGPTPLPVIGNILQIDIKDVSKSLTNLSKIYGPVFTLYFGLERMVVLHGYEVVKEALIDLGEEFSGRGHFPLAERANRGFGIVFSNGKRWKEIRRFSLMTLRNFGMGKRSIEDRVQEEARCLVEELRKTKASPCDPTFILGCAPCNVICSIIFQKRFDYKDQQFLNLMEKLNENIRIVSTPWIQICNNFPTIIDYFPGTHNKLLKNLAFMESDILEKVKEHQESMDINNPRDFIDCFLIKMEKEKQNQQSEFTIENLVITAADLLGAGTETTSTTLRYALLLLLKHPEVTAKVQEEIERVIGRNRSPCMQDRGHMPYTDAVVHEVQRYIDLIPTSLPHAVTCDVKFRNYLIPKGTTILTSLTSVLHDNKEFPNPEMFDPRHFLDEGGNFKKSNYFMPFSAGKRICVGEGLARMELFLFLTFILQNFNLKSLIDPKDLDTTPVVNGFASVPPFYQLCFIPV

Take `COc1c(OCCCC(F)(F)F)ccnc1C[S+]([O-])c1nc2ccccc2[nH]1` (single isomer, unassigned; (+)) [Example 5(1), (+)-2-[3-methoxy-4-(4,4,4-trifluorobutoxy)pyridin-2-yl-methanesulfinyl]-1H-benzimidazole]: the “CYP2C19 residual activity (%)” value on CYP2C19 amounted to 78.6%. In addition, the IC50 at H+/K+-ATPase was 3.32 µmol/L. In series [1] (Rattus norvegicus), the median effective dose (ED50) was determined as 0.9 mg/kg.
As to `[O-][S+](Cc1cc(OCCCC(F)(F)F)ccn1)c1nc2ccccc2[nH]1` (single isomer, unassigned; (+)) [Example 11, (+)-2-[4-(4,4,4-trifluorobutoxy)pyridin-2-yl-methanesulfinyl]-1H-benzimidazole], at H+/K+-ATPase, the IC50 came out at 3.77 µmol/L. Also, the “Gastric-acid secretion inhibition action [ED50 (mg/kg)]” value in series [1] turned out to be 0.50 mg/kg.
Consider `[O-][S+](Cc1cc(OCCOCC(F)(F)F)ccn1)c1nc2ccccc2[nH]1` (single isomer, unassigned; (+)) [Example 14, (+)-2-{4-[2-(2,2,2-trifluoroethoxy)ethoxy]pyridin-2-yl-methanesulfinyl}-1H-benzimidazole], for which the “CYP2C19 residual activity (%)” value at CYP2C19 turned out to be 81.4%. The IC50 on H+/K+-ATPase was determined as 6.67 µmol/L. Moreover, in series [1], the “Gastric-acid secretion inhibition action [ED50 (mg/kg)]” value was 0.42 mg/kg.
`COc1c(OCCOCC(F)(F)F)ccnc1C[S+]([O-])c1nc2ccccc2[nH]1` (single isomer, unassigned; (-)) [Example 4, (−)-2-{3-methoxy-4-[2-(2,2,2-trifluoroethoxy)ethoxy]pyridin-2-yl-methylsulfinyl}-1H-benzimidazole]: the “CYP2C19 residual activity (%)” value on CYP2C19 was found to be 93.9%. Besides, the IC50 on H+/K+-ATPase turned out to be 3.46 µmol/L. Further, the “Gastric-acid secretion inhibition action [ED50 (mg/kg)]” value in series [1] was 2.6 mg/kg.
Turning to `[O-][S+](Cc1cc(OCCOCC(F)(F)F)ccn1)c1nc2ccccc2[nH]1` (stereo not shown) [Example 12, 2-{4-[2-(2,2,2-trifluoroethoxy)ethoxy]pyridin-2-yl-methanesulfinyl}-1H-benzimidazole], the activity at 10 min, 10 µM at CYP2C19 (human, pH 7.4, probe S-(+)-mephenytoin (to 4'-hydroxymephenytoin), read-out: CYP2C19 residual activity (%)) is 88.8%. At H+/K+-ATPase, the IC50 amounted to 7.86 µmol/L.
